The test system of data set [1] is normal hematopoietic stem cells (HSC). Nature of the data set: Apoptosis/toxicity in normal hematopoietic stem cells. Type of data set: cell-based, human. The following applies: representative specimen. The text has this:
Fresh bone marrow (BM) cells were obtained from 38 patients with CML and 5 non-leukemic donors, 25 AML, 17 ALL, and 8 normal specimens with informed consent according to the Declaration of Helsinki. Approval was obtained from Institutional Review Board at the School of Medicine in Shanghai Jiao Tong University. BM mononuclear cells were isolated by Ficoll density gradient centrifugation (Shanghai Second Reagent Factory, Shanghai, China). CD34^+ Cell were selected using EasySep® Human CD34 Positive Selection kit (Stem Cell Technologies, Vancouver, BC, Canada) according to the manufacturer's instructions. The purity of CD34 cells ranged between 92 and 98% in all samples detennined by flow cytometry. The CD34^+ cells were cultured in a serum-free medium (StemPro 34; Gibco BRL, Gaithersburg, Md.) supplemented with growth factors (PeproTech, London, United Kingdom) (20). The growth factors consisted of GM-CSF (200 pg/mL), G-CSF (1 ng/mL); SCF (200 pg/mL); LIF (50 pg/mL), MIP-1α (200 pg/mL) and IL-6 (1 ng/mL).
Primitive AML and CML subpopulations (CD34^+ cells) were identified using CD34-PE in combination with CD38-APC, and followed by double-labeling with 7AAD and Annexin V antibodies for apoptosis assessment. […] Subsequently, the samples were incubated at room temperature for 15 minutes and analyzed by flow cytometry. […]

The test system of another data set is K562. Nature of the data set: Apoptosis in CML cell line K562. Type of data set: cell-based. The following applies: 4 μM fenretinide, 0.25 μM imatinib, 0.1 μM MG132, alone or combined. The procedure:
2×10^5 cultured cells were used for evaluating apoptosis using an ApoAlert Annexin V-FITC Apoptosis Kit (BD Biosciences). Cells were washed once by PBS, resuspended in 200 μl Annexin-V binding buffer, and then stained with Annexin V-FITC 5 μl, PI 10 μl for 15 min at room temperature in the dark. Cells were subsequently analyzed by flow cytometry.

For data set [2], the system named is CD34+CD38− acute leukemia stem and CD34+CD38+ progenitor population. The experiment in a line: Apoptosis of acute leukemia (AML and ALL) stem and progenitor subpopulations. It is filed as cell-based, human. The following applies: AML and ALL specimens. The protocol: Primitive AML and CML subpopulations (CD34^+ cells) were identified using CD34-PE in combination with CD38-APC, and followed by double-labeling with 7AAD and Annexin V antibodies for apoptosis assessment. The CD34^+ cells were first stained with antibodies against the surface markers CD34-PE and CD38-APC (Beckman Coulter, Fullerton, Calif.) and incubated at room temperature for 15 minutes. Cells were then washed with cold PBS and resuspended in 200 μL annexin V 1×binding buffer (10 mM HEPES/NaOH, pH 7.4, 140 mM NaCl, 2.5 mM CaCl2), 5 μL AnnexinV-FITC (BD Phanningen, San Diego, Calif.) and 7-aminoactinomycin (7-AAD, 0.25 mg/mL) (Molecular Probes, Eugene, Oreg.). Subsequently, the samples were incubated at room temperature for 15 minutes and analyzed by flow cytometry.
Furthermore, we examined whether fenretinide can preferentially target highly quiescent LSCs with CD34^+CD38^− immunophenotyte and leukemia progenitor cells with CD34^+CD38^+ for AML and most ALL specimens. Due to the difficulty of obtaining adequate normal CD34^+CD38^− cells, our apoptosis data of normal specimens came from CD34^− cell populations. Also, we used Ara-C and VCR (vincristine) as controls to test the apoptosis of leukemia stem cells, which were thought to be resistant to these chemotherapeutics.

Molecules are shown by their SMILES.

As to `CC1=C(/C=C/C(C)=C/C=C/C(C)=C/C(=O)Nc2ccc(O)cc2)C(C)(C)CCC1` [fenretinide, N-(4-hydroxyphenyl)retinamide], the “change in the cell proportion of normal HSC” value in data set [1] is 5.36%. In addition, in data set [1] (fenretinide alone or co-treatment with imatinib), the “apoptosis in normal HSC” value worked out at 19.08%. Further, in the data set on K562, the apoptosis rate turned out to be 2.46%. Also, the “apoptosis in CD34+CD38− acute leukemia stem population versus CD34+CD38+ progenitor population” value in data set [2] is recorded as “more apoptosis”.

For the origin of these results see patent publication US8088822B2, “Use of fenretinide or bioactive derivatives thereof and pharmaceutical compositions comprising the same” (priority 2008, dated 2012).
